# Data: patent US12162855B2, “Tetrahydroquinolino derivatives for the treatment of metastatic and chemoresistant cancers” (THE TRUSTEES OF PRINCETON UNIVERSITY, priority 2018, dated 2024)
# Legend:
# [1] = target: T1, ALDH1a3 (Homo sapiens, UniProt P47895); test: ALDEFLUOR assay in cell lines of a variety of cancer types; assay type: cell-based; conditions: ALDEFLUOR-positive cells, various cancer cell lines
# T1 construct: endogenous in cells; host or cells: panel of cancer cell lines (e.g. Sum159-M1a, MDA-MB-468 and others of b212)
# T1 sequence (P47895 2-512): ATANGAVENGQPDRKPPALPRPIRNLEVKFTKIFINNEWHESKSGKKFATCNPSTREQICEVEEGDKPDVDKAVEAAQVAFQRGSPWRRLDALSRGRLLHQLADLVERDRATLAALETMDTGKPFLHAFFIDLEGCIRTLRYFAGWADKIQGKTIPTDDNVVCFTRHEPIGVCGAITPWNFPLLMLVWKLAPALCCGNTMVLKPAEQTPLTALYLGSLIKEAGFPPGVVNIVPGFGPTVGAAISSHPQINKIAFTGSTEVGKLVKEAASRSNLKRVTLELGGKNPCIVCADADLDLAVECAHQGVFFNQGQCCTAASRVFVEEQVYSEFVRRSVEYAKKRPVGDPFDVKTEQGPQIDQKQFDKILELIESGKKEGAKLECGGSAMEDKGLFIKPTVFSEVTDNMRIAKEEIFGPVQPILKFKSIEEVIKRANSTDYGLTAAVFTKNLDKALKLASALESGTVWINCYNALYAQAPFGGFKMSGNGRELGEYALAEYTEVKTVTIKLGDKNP
# Source text: Cell lines were labeled with retroviral vectors with bi-cistronic expression of GFP/firefly luciferase to facilitate imaging and flow cytometry experiments. All cell lines were verified negative for mycoplasma contamination by monthly PCR analysis. No cells lines used here appear in the database of commonly misidentified cell lines (ICLAC). All cell lines were validated with STR analysis and compared to NCBI repository data.
# Cells were counted, centrifuged and resuspended at 1,000,000 cells/mL in ALDEFLUOR™ buffer (Stemcell Technologies). ALDEFLUOR™ substrate (Stemcell Technologies, 1:200) and test compound or 1 mM DEAB were added to cell suspension and incubated at 37° C. for 45 minutes with vortexing every 15 minutes. Cells were centrifuged and resuspended in ALDEFLUOR™ buffer with DAPI at 5 μg/mL. Samples were analyzed with the BD LSR2 flow cytometry platform. Gating was performed using DEAB as a negative control.
# A notable exception is liver cancer, where it is expected that a large ALDEFLUOR™-positive population exists, and is driven by ALDH1a1.
# [2] = test system: SUM159-M1a cells; test: Lung metastasis xenograft, SUM159-M1a cells by tail vein injection, BLI; assay type: in vivo, mouse; conditions: MBE1 IP in conjunction with paclitaxel, tail vein injection model
# Experimental: (§1) All xenograft experiments were conducted on 8-week old female mice (athymic Nu/Nu, or NOD/SCID Gamma). Xenograft experiments were conducted using 125,000 SUM159-M1a cells in 100 μL PBS for tail vein or intracardiac injection. Mice were randomized following injection. Bioluminescent imaging (BLI) was conducted using the IVIS 200 system and retroorbital luciferin injection. For drug treatment, MBE1 (prepared as above) was given to mice via IP injection in conjunction with paclitaxel (5 mg/mL in 10% ethanol, 10% Kolliphor EL, 80% PBS) at the time intervals and dosages indicated in FIG. 5A (tail vein injection) and FIG. 6A (intracardiac injection).
# (§2) FIG. 5B is a line graph of lung metastasis, as measured using bioluminescence imaging (BLI), versus time (days), and compares lung metastasis in the presence and absence of MBE1 in the mice from the experiment outlined in FIG. 5A. FIG. 6B is a line graph of bone metastasis, as measured using BLI, versus time (days), and compares bone metastasis in the presence and absence of MBE1 in the mice from the experiment outlined in FIG. 6A.
# [3] = test system: SUM159-M1a cells; test: Bone metastasis xenograft, SUM159-M1a cells by intracardiac injection, BLI; assay type: in vivo, mouse; conditions: MBE1 IP in conjunction with paclitaxel, intracardiac injection model
# Experimental: as §1, §2
compound,measurement,setting,value
"CCc1cnccc1C(=O)Nc1cc2c(cc1F)NC(=O)CC2 [MBE1, 3-ethyl-N-(7-fluoro-2-oxo-1,2,3,4-tetrahydroquinolin-6-yl)isonicotinamide]",inhibition of ALDH1a3 activity in a variety of cancer types (FIG. 3A),[1],inhibited by MBE1 in many cancer types
same,lung metastasis by BLI (FIG. 5B),[2],effective therapeutic to treat established metastatic disease
same,bone metastasis by BLI (FIG. 6B),[3],effective therapeutic to treat established metastatic disease
